Data set [1] deals with IRAK4 (Homo sapiens (Human), UniProt Q9NWZ3). Put plainly: IRAK4 Inhibition Assay. The class given is biochemical. The note with it: ATP 500 μM; IRAK4 0.6 nM. In a few lines: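 Readout: electrophoretic (LabChip) separation of fluorescent peptide substrate from phosphorylated product after EDTA quench. Reactions ran 60 min at room temperature with 0.6 nM IRAK4, 1.5 μM peptide and 500 μM ATP; inhibition referenced to no-enzyme (100%) and vehicle (0%) controls.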

The nature of data set [2]: Caco-2 Permeability Assay. The format is in vitro ADME. To be noted: human, Caco-2, test compound 3 μM. In a few lines: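 Bidirectional permeability measured over 2 h at 37° C, compound dosed at 3 μM in the donor compartment (apical for absorptive, basolateral for secretive) with plain buffer as receiver.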
(In general: Caco-2 cells form a polarised layer with tight junctions and transporters.)

In data set [3] the test system is Human whole blood stimulated with a TLR2 agonist (lipoteichoic acid), IL-6 levels. Put plainly: IRAK4 Whole Blood Assay. The class given is cell-based. The note with it: lipoteichoic acid 10 μg/mL. The method in brief:
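IL-6 was quantified by cytometric bead assay in supernatants of human blood (ACD-A) stimulated for 5 h with lipoteichoic acid at 10 μg/mL final. Compound exposure preceded stimulation for 60 min at 37 °C, 5% CO2.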

IRAK4, sequence (Q9NWZ3 whole entry, species assumed): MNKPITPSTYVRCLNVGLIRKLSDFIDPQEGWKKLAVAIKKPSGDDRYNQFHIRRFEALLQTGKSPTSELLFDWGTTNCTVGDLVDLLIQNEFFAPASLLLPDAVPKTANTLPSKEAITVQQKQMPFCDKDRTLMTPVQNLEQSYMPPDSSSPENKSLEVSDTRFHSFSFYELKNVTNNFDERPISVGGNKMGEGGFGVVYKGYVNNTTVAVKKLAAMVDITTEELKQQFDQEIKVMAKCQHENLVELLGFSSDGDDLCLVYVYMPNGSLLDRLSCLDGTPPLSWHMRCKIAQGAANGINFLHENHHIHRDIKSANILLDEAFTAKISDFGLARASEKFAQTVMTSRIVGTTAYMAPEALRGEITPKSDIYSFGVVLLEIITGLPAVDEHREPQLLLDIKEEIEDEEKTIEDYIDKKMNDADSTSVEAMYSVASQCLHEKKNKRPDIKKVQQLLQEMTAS

`CC(C)Nc1cc(-n2ncc3cc(C#N)cnc32)ncc1-c1cn(CCC(C)(C)O)cn1` [Example 240, 1-(5-(1-(3-hydroxy-3-methylbutyl)-1H-imidazol-4-yl)-4-(isopropylamino)pyridin-2-yl)-1H-pyrazolo[3,4-b]pyridine-5-carbonitrile]: the IC50 in data set [1] stood at 3 nM. The compound further came in with a Papp at 2 h, 3 µM in data set [2] of 5.7 ×10⁻⁶ cm/s. A half-maximal effect in data set [3] (Homo sapiens) (EC50) was put at 740 nM.

Turning to `CCCc1cn(-c2cnc(-n3ncc4cc(C#N)cnc43)cc2NC(C)C)nn1` [Example 263, 1-(4-(isopropylamino)-5-(4-propyl-1H-1,2,3-triazol-1-yl)pyridin-2-yl)-1H-pyrazolo[3,4-b]pyridine-5-carbonitrile], the IC50 in data set [1] is 15 nM. Moreover, the apparent permeability (Papp) at 2 h, 3 µM in data set [2] stood at 7.8 ×10⁻⁶ cm/s. Moreover, in data set [3] (Homo sapiens), a half-maximal response (EC50) required 330 nM.

For `CC(O)Cc1cn(-c2cnc(-n3ncc4cc(C#N)cnc43)cc2NCC(C)(C)O)nn1` (stereo not drawn) [Example 264, 1-(4-((2-hydroxy-2-methylpropyl)amino)-5-(4-(2-hydroxypropyl)-1H-1,2,3-triazol-1-yl)pyridin-2-yl)-1H-pyrazolo[3,4-b]pyridine-5-carbonitrile], in data set [1], the half-maximal inhibitory concentration (IC50) amounted to 8 nM. In data set [2], this compound came in with a Papp at 2 h, 3 µM of 22.5 ×10⁻⁶ cm/s. The same compound came in with an EC50 in data set [3] (Homo sapiens) of 330 nM.

As for `CCCc1cn(-c2cnc(-n3ncc4cc(C#N)cnc43)cc2Nc2cnn(CC(F)F)c2)nn1` [Example 269, 1-(4-((1-(2,2-difluoroethyl)-1H-pyrazol-4-yl)amino)-5-(4-propyl-1H-1,2,3-triazol-1-yl)pyridin-2-yl)-1H-pyrazolo[3,4-b]pyridine-5-carbonitrile], the IC50 in data set [1] was 4 nM. This compound registered a Papp at 2 h, 3 µM in data set [2] of 3.8 ×10⁻⁶ cm/s. Moreover, the EC50 in data set [3] (Homo sapiens) came to 390 nM.

Take `CCCc1cn(-c2cnc(-n3ncc4cncnc43)cc2Nc2cnn(CC(F)F)c2)nn1` [Example 270, N-(1-(2,2-difluoroethyl)-1H-pyrazol-4-yl)-5-(4-propyl-1H-1,2,3-triazol-1-yl)-2-(1H-pyrazolo[3,4-d]pyrimidin-1-yl)pyridin-4-amine]: the IC50 in data set [1] amounted to 6 nM. In data set [2], this compound had an apparent permeability coefficient (Papp) at 2 h, 3 µM of 37.2 ×10⁻⁶ cm/s. This compound also gave an EC50 in data set [3] (Homo sapiens) of 1170 nM.

As for `CCCc1cn(-c2cnc(-n3ncc4cc(C#N)c(N)nc43)cc2NC(C)C)nn1` [Example 280, 6-amino-1-(4-(isopropylamino)-5-(4-propyl-1H-1,2,3-triazol-1-yl)pyridin-2-yl)-1H-pyrazolo[3,4-b]pyridine-5-carbonitrile], in data set [1], the IC50 came out at 3 nM. In data set [2], this compound registered an apparent permeability coefficient (Papp) at 2 h, 3 µM of 27.6 ×10⁻⁶ cm/s. Besides, the response in data set [3] (Homo sapiens) was half-maximal at 230 nM (EC50).

Turning to `CC(C)Nc1cc(-n2ncc3cc(C#N)cnc32)ncc1-n1cc(CCCO)nn1` [Example 296, 1-(5-(4-(3-hydroxypropyl)-1H-1,2,3-triazol-1-yl)-4-(isopropylamino)pyridin-2-yl)-1H-pyrazolo[3,4-b]pyridine-5-carbonitrile], the IC50 in data set [1] came out at 11 nM. Also, in data set [2], the Papp at 2 h, 3 µM amounted to 4.4 ×10⁻⁶ cm/s. Also, in data set [3] (Homo sapiens), the EC50 amounted to 240 nM.

`CC(C)Nc1cc(-n2ncc3cc(C#N)cnc32)ncc1-n1cc(CCCCO)nn1` [Example 311, 1-(5-(4-(4-hydroxybutyl)-1H-1,2,3-triazol-1-yl)-4-(isopropylamino)pyridin-2-yl)-1H-pyrazolo [3,4-b]pyridine-5-carbonitrile]: in data set [1], the IC50 came out at 6 nM. The apparent permeability coefficient (Papp) at 2 h, 3 µM in data set [2] was found to be 6.4 ×10⁻⁶ cm/s. In addition, the response in data set [3] (Homo sapiens) was half-maximal at 120 nM (EC50).

`CCC(C)(O)Cc1cn(-c2cnc(-n3ncc4cc(C#N)cnc43)cc2NC(C)C)nn1` (stereo not drawn) [Example 318, 1-(5-(4-(2-hydroxy-2-methylbutyl)-1H-1,2,3-triazol-1-yl)-4-(isopropylamino)pyridin-2-yl)-1H-pyrazolo[3,4-b]pyridine-5-carbonitrile]: in data set [1], the IC50 is 25 nM. The apparent permeability (Papp) at 2 h, 3 µM in data set [2] is 10.8 ×10⁻⁶ cm/s. In addition, in data set [3] (Homo sapiens), the EC50 was found to be 790 nM.

Consider `CC(C)Nc1cc(-n2ncc3cc(C#N)cnc32)ncc1-n1cc(CCC(C)(C)O)nn1` [Example 327, 1-(5-(4-(3-hydroxy-3-methylbutyl)-1H-1,2,3-triazol-1-yl)-4-(isopropylamino)pyridin-2-yl)-1H-pyrazolo[3,4-b]pyridine-5-carbonitrile], for which, in data set [1], the IC50 was 3 nM. The compound further had an apparent permeability (Papp) at 2 h, 3 µM in data set [2] of 7.4 ×10⁻⁶ cm/s. For the same compound, the midpoint of the response in data set [3] (Homo sapiens), the EC50, lay at 200 nM.

As to `CC(=O)Cc1cn(-c2cnc(-n3ncc4cc(C#N)cnc43)cc2NC(C)C)nn1` [Example 331, 1-(4-(isopropylamino)-5-(4-(2-oxopropyl)-1H-1,2,3-triazol-1-yl)pyridin-2-yl)-1H-pyrazolo[3,4-b]pyridine-5-carbonitrile], the IC50 in data set [1] came out at 10 nM. In data set [2], this compound gave a Papp at 2 h, 3 µM of 9.2 ×10⁻⁶ cm/s. In addition, it took 2560 nM to reach a half-maximal effect in data set [3] (Homo sapiens) (EC50).

As for `CC(C)Nc1cc(-n2ncc3cc(C#N)cnc32)ncc1-n1cc(C2CCNCC2)nn1` [Example 334, 1-(4-(isopropylamino)-5-(4-(piperidin-4-yl)-1H-1,2,3-triazol-1-yl)pyridin-2-yl)-1H-pyrazolo[3,4-b]pyridine-5-carbonitrile], in data set [1], the 50% inhibitory concentration (IC50) was determined as 2 nM. In data set [2], this compound yielded a Papp at 2 h, 3 µM of less than 1.5 ×10⁻⁶ cm/s. The compound further gave an EC50 in data set [3] (Homo sapiens) of 70 nM.

Take `CC(C)Nc1cc(-n2ncc3cc(C#N)cnc32)ncc1-n1cc(C2CCN(CC(F)F)CC2)nn1` [Example 336, 1-(5-(4-(1-(2,2-difluoroethyl)piperidin-4-yl)-1H-1,2,3-triazol-1-yl)-4-(isopropylamino)pyridin-2-yl)-1H-pyrazolo[3,4-b]pyridine-5-carbonitrile]: the IC50 in data set [1] was found to be 7 nM. This compound gave a Papp at 2 h, 3 µM in data set [2] of 25 ×10⁻⁶ cm/s. Besides, in data set [3] (Homo sapiens), the midpoint of the response, the EC50, lay at 220 nM.

`CC(C)Nc1cc(-n2ncc3cc(C#N)cnc32)ncc1-n1cc(C2CCN(C(C)C)CC2)nn1` [Example 337, 1-(4-(isopropylamino)-5-(4-(1-isopropylpiperidin-4-yl)-1H-1,2,3-triazol-1-yl)pyridin-2-yl)-1H-pyrazolo[3,4-b]pyridine-5-carbonitrile]: the half-maximal inhibitory concentration (IC50) in data set [1] was determined as 6 nM. The same compound returned a Papp at 2 h, 3 µM in data set [2] of less than 1.5 ×10⁻⁶ cm/s. The compound further displayed an EC50 in data set [3] (Homo sapiens) of 280 nM.

For the compound `COC(=O)N1CCC(c2cn(-c3cnc(-n4ncc5cc(C#N)cnc54)cc3NC(C)C)nn2)CC1` [Example 338, methyl 4-(1-(6-(5-cyano-1H-pyrazolo[3,4-b]pyridin-1-yl)-4-(isopropylamino)pyridin-3-yl)-1H-1,2,3-triazol-4-yl)piperidine-1-carboxylate], in data set [1], the IC50 is 6 nM. In data set [2], this compound showed an apparent permeability (Papp) at 2 h, 3 µM of 17.9 ×10⁻⁶ cm/s. In data set [3] (Homo sapiens), this compound came in with a 50% effective concentration (EC50) of 380 nM.

Consider `CC(=O)N1CC(c2cn(-c3cnc(-n4ncc5cc(C#N)cnc54)cc3NC(C)C)nn2)C1` [Example 339, 1-(5-(4-(1-acetylazetidin-3-yl)-1H-1,2,3-triazol-1-yl)-4-(isopropylamino)pyridin-2-yl)-1H-pyrazolo[3,4-b]pyridine-5-carbonitrile], for which the IC50 in data set [1] worked out at 5 nM. The same compound registered an apparent permeability coefficient (Papp) at 2 h, 3 µM in data set [2] of less than 1.5 ×10⁻⁶ cm/s. In data set [3] (Homo sapiens), this compound came in with an EC50 of 390 nM.

With `CC(=O)NC1CCC(c2cn(-c3cnc(-n4ncc5cc(C#N)cnc54)cc3NC(C)C)nn2)CC1` (stereo not drawn) [Example 341, N-((1s,4s)-4-(1-(6-(5-cyano-1H-pyrazolo[3,4-b]pyridin-1-yl)-4-(isopropylamino)pyridin-3-yl)-1H-1,2,3-triazol-4-yl)cyclohexyl)acetamide], the IC50 in data set [1] amounted to 3 nM. The same compound gave a Papp at 2 h, 3 µM in data set [2] of less than 1.5 ×10⁻⁶ cm/s. Besides, the concentration giving a half-maximal response (EC50) in data set [3] (Homo sapiens) came to 300 nM.

As to `N#Cc1cnc2c(cnn2-c2cc(NC3CC3)c(-n3cc(C4CCOCC4)nn3)cn2)c1` [Example 348, 1-(4-(cyclopropylamino)-5-(4-(tetrahydro-2H-pyran-4-yl)-1H-1,2,3-triazol-1-yl)pyridin-2-yl)-1H-pyrazolo[3,4-b]pyridine-5-carbonitrile], the IC50 in data set [1] was determined as 13 nM. The compound further displayed an apparent permeability coefficient (Papp) at 2 h, 3 µM in data set [2] of 41 ×10⁻⁶ cm/s. Further, the response in data set [3] (Homo sapiens) was half-maximal at 170 nM (EC50).

Turning to `CC(C)Nc1cc(-n2ncc3cc(C#N)cnc32)ncc1-n1cc(CCN2CCOCC2)nn1` [Example 349, 1-(4-(isopropylamino)-5-(4-(2-morpholinoethyl)-1H-1,2,3-triazol-1-yl)pyridin-2-yl)-1H-pyrazolo[3,4-b]pyridine-5-carbonitrile], the IC50 in data set [1] stood at 3 nM. This compound had a Papp at 2 h, 3 µM in data set [2] of 18.6 ×10⁻⁶ cm/s. Moreover, in data set [3] (Homo sapiens), the concentration giving a half-maximal response (EC50) was 270 nM.

Consider `CC(C)Nc1cc(-n2ncc3cnc(N)nc32)ncc1-n1cc(CCC(C)(C)O)nn1` [Example 350, 4-(1-(6-(6-amino-1H-pyrazolo[3,4-d]pyrimidin-1-yl)-4-(isopropylamino)pyridin-3-yl)-1H-1,2,3-triazol-4-yl)-2-methylbutan-2-ol], for which, in data set [1], the IC50 worked out at 6 nM. In data set [2], this compound returned a Papp at 2 h, 3 µM of 6.4 ×10⁻⁶ cm/s. Also, the 50% effective concentration (EC50) in data set [3] (Homo sapiens) stood at 280 nM.

As to `CC(C)Nc1cc(-n2ncc3cnc(N)nc32)ncc1-n1cc(CCC(C)(C)F)nn1` [Example 351, 1-(5-(4-(3-fluoro-3-methylbutyl)-1H-1,2,3-triazol-1-yl)-4-(isopropylamino)pyridin-2-yl)-1H-pyrazolo[3,4-d]pyrimidin-6-amine], the concentration for half-maximal inhibition (IC50) in data set [1] came to 4 nM. The Papp at 2 h, 3 µM in data set [2] was 30.6 ×10⁻⁶ cm/s. The compound further came in with a concentration giving a half-maximal response (EC50) in data set [3] (Homo sapiens) of 370 nM.

Turning to `CC(F)Cc1cn(-c2cnc(-n3ncc4cc(C#N)cnc43)cc2NC2CC2)nn1` (stereo not drawn) [Example 354, 1-(4-(cyclopropylamino)-5-(4-(2-fluoropropyl)-1H-1,2,3-triazol-1-yl)pyridin-2-yl)-1H-pyrazolo[3,4-b]pyridine-5-carbonitrile], the half-maximal inhibitory concentration (IC50) in data set [1] amounted to 14 nM. The apparent permeability coefficient (Papp) at 2 h, 3 µM in data set [2] turned out to be 36 ×10⁻⁶ cm/s. This compound gave an EC50 in data set [3] of 150 nM.

As a reminder, the IC50 is the point on the concentration scale where inhibition reaches its midpoint. In general, Papp refers to the rate of passage across a membrane or cell layer, normalised by area and donor concentration. Usually EC50 stands for the concentration that produces a half-maximal response.
